Experimental data as given in patent US20210401931A1, “METHODS AND MATERIALS FOR TREATING CANCER” (Mayo Foundation for Medical Education and Research, priority 2018, published 2021).
Entries after “also recorded” stand apart in the source; their conditions may differ. Blank lines part the entries; values can stand above or below the molecule they belong to.

Legend:
PD-L1 mRNA = PD-L1 mRNA expression by RT-qPCR in PC-3 cells treated with chemicals; type: cell-based, human; settings: 24 hours; for PD-L1 mRNA expression: RT-qPCR; for palbociclib-induced elevation of PD-L1: co-treatment with palbociclib
Description: FIGS. 1A-K. RB suppresses PD-L1 mRNA expression. (A) PC-3 cell were treated with indicated chemicals for 24 hours. Cells were harvested for RT-qPCR. All data were shown as mean values±SD (n=3). * P<0.05, ** P<0.01, *** P<0.001. (B) PC-3 cells were infected with lentivirus expressing control or CDK4 and CDK6-specific shRNAS. 72 hours after infection, cells were harvested for RT-qPCR. All data were shown as mean values±SD (n=3). *** P<0.001. (C-F) PC-3 cells were infected with lentivirus expressing control or RB1-specific shRNAs. 48 hours after infection, PD-L1 protein levels were determined by western blotting (C), RT-qPCR (D), FACS (E), and IFC (F). All data were shown as mean values±SD (n=3). * P<0.05, ** P<0.01, *** P<0.001. (G) PD-L1 mRNA levels were determined by RT-qPCR in SKO and DKO mouse prostate tumor cells. All data were shown as mean values±SD (n=3). * P<0.05, ** P<0.01, *** P<0.001. (H-J) SKO (H), DKO (I), and Rb^−/−PrE (J) cells were treated with palbociclib for 24 hours. Cells were harvested for RT-qPCR. All data were shown as mean values±SD (n=3). * P<0.05, ** P<0.01, *** P<0.001. (K) The putative copy-number calls for RB1 were determined using GISTC 2.0, and the mRNA expression for CD274(PD-L1) was measured by log 2(RPKM), here RPKM stands for Reads Per Kilobase of transcript per Million mapped reads. […] The nonparametric Mann-Whitney U test was used for the statistical test.
FIGS. 8A-D. (A) PC-3, MIA PaCa-2, H1299, SK-Hep1, and PTEN-CaP8 cells were treated with different doses of palbociclib for 24 hours. Cells were harvested for RT-qPCR. All data were shown as mean values±SD (n=3). * P<0.05, ** P<0.01. (B) PC-3 cell were treated with indicated chemicals for 24 hours. Cells were harvested for RT-qPCR. All data were shown as mean values±SD (n=3). Ns, not significant, * P<0.05, ** P<0.01. (C, D) PC-3 cells were infected with lentivirus expressing control shRNA or RB1-specific shRNA. 24 hours after puromycin selection, cells were treated with or without Helenalin (2 μM) for 24 hours. Cells were harvested for western blotting analysis (C) and RT-qPCR (D). All data were shown as mean values±SD (n=3). Ns, not significant, *** P<0.001.
FIGS. 13A-F. (A, B) PC-3 cells were treated with or without gamma irradiation (IR) (12 Gy). 24 hours post treatment, cells were treated with or without Helenalin (2 μM). 24 hours after treatment, cells were harvested for western blotting analysis (A) and RT-qPCR analysis (B). All data were shown as mean values±SD (n=3). “ns”=not significant, *** P<0.001. (C) PTEN-CaP8 cells were infected with lentivirus expression Tsin control or Tsin-RL S249D/T252D peptide. 72 hours post infection, cell were harvested for western blotting analysis. (D, E) PTEN-CaP8 cells were infected with lentivirus expression Tsin control or Tsin-RL S249D/T252D peptide. 72 hours post infection, cells were treated with or without gamma irradiation (12 Gy) for 48 hours. Cells were harvested for MTS assay (D) and RT-qPCR (E). All data were shown as mean values±SD (n=3). “ns”=not significant, ** P<0.01; *** P<0.001. (F) Schematic diagram depicting the treatment plan for mice bearing subcutaneous PTEN-CaP8 tumors.
Total RNA was isolated using TRIzol reagent (Thermo Fisher Scientific). The NanoDrop 2000 spectrophotometer (Thermo Fisher Scientific) was used to assess RNA yield and quality. RNA was reversely transcribed using Superscript reverse transcriptase (Thermo Fisher Scientific) following manufacturer's instructions. Quantitative real-time PCR was performed by mixing cDNA, gene-specific primers, and IQ SYRB Green Supermix and detected by iCycler QTX detection system (Bio-Rad). The 2-ΔCt method was used to quantitate fold changes by normalizing to GAPDH. Primers for RT-qPCR are provided Table 4.

[1] = target: T1, retinoblastoma protein RB (endogenous) (human, UniProt P06400 2-928); experiment: co-IP of endogenous proteins in PC-3 cells (FIGS. 2A and 18A)
T1 construct: Endogenous protein of cell lysates, phosphorylation state as in the cells; also called RB1; endogenous RB
T1 sequence (looked up): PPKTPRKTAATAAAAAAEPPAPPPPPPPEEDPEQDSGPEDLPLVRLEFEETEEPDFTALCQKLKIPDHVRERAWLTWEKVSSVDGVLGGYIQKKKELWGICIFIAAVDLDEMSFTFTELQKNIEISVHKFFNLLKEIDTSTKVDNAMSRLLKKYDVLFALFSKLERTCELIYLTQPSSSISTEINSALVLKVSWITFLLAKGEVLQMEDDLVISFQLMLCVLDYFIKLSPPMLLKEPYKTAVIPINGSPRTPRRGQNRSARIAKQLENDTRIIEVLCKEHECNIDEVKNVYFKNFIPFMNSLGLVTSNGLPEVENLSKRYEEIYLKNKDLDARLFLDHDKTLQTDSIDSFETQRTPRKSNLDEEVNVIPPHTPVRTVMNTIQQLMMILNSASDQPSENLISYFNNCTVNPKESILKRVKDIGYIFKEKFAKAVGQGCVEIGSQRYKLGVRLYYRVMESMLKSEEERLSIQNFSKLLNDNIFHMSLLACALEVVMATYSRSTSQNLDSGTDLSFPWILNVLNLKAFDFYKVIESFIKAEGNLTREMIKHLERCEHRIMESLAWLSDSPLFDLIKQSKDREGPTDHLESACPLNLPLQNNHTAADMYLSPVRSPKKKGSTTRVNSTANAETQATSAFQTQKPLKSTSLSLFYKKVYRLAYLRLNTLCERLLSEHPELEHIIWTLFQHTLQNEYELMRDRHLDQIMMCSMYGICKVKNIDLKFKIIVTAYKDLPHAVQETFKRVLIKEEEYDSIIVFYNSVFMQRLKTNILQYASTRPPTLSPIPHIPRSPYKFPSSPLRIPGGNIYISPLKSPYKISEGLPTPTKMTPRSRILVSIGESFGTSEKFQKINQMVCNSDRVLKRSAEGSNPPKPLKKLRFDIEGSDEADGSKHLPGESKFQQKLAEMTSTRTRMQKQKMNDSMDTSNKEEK

Molecule: Cc1sc2c(c1C)C(c1ccc(Cl)cc1)=N[C@@H](CC(=O)OC(C)(C)C)c1nnc(C)n1-2 [JQ1]
PD-L1 mRNA expression (PD-L1 mRNA; PC-3 cells): dramatic downregulation

Molecule: C=C1C(=O)O[C@@H]2C[C@@H](C)[C@@H]3C=CC(=O)[C@@]3(C)[C@@H](O)[C@H]12 [helenalin]
RB knockdown-induced PD-L1 upregulation (PD-L1 mRNA; PC-3 cells with RB1 shRNA, Helenalin 2 μM): completely blocked; also recorded: inhibited
gamma irradiation-induced PD-L1 expression (PD-L1 mRNA; PC-3 cells, 12 Gy, Helenalin 2 μM): abrogated
PD-L1 mRNA expression (PD-L1 mRNA; PC-3 cells): decreased
palbociclib-induced elevation of PD-L1 (PD-L1 mRNA; PC-3 cells): completely abolished

Molecule: CN1CC[C@H](c2c(O)cc(O)c3c(=O)cc(-c4ccccc4Cl)oc23)[C@H](O)C1 [flavopiridol]
PD-L1 mRNA expression (PD-L1 mRNA; PC-3 cells): dramatic downregulation
palbociclib-induced elevation of PD-L1 (PD-L1 mRNA; PC-3 cells): completely abolished

Molecule: CC[C@H](CO)Nc1nc(NCc2ccccc2)c2ncn(C(C)C)c2n1 [roscovitine]
PD-L1 mRNA expression (PD-L1 mRNA; PC-3 cells): dramatic downregulation

binding result [1]: no binding
B1: c-Rel (other, human, UniProt Q04864 2-619, looked up)
chain: ASGAYNPYIEIIEQPRQRGMRFRYKCEGRSAGSIPGEHSTDNNRTYPSIQIMNYYGKGKVRITLVTKNDPYKPHPHDLVGKDCRDGYYEAEFGQERRPLFFQNLGIRCVKKKEVKEAIITRIKAGINPFNVPEKQLNDIEDCDLNVVRLCFQVFLPDEHGNLTTALPPVVSNPIYDNRAPNTAELRICRVNKNCGSVRGGDEIFLLCDKVQKDDIEVRFVLNDWEAKGIFSQADVHRQVAIVFKTPPYCKAITEPVTVKMQLRRPSDQEVSESMDFRYLPDEKDTYGNKAKKQKTTLLFQKLCQDHVETGFRHVDQDGLELLTSGDPPTLASQSAGITVNFPERPRPGLLGSIGEGRYFKKEPNLFSHDAVVREMPTGVSSQAESYYPSPGPISSGLSHHASMAPLPSSSWSSVAHPTPRSGNTNPLSSFSTRTLPSNSQGIPPFLRIPVGNDLNASNACIYNNADDIVGMEASSMPSADLYGISDPNMLSNCSVNMMTTSSDSMGETDNPRLLSMNLENPSCNSVLDPRDLRQLHQMSSSSMSAGANSNTTVFVSQSDAFEGSDFSCADNSMINESGPSNSTNPNSHGFVQDSQYSGIGSMQNEQLSDSFPYEFFQV

binding result [1]: no binding
B2: p52 (other, human, UniProt Q00653 1-454, looked up)
chain: MESCYNPGLDGIIEYDDFKLNSSIVEPKEPAPETADGPYLVIVEQPKQRGFRFRYGCEGPSHGGLPGASSEKGRKTYPTVKICNYEGPAKIEVDLVTHSDPPRAHAHSLVGKQCSELGICAVSVGPKDMTAQFNNLGVLHVTKKNMMGTMIQKLQRQRLRSRPQGLTEAEQRELEQEAKELKKVMDLSIVRLRFSAFLRASDGSFSLPLKPVISQPIHDSKSPGASNLKISRMDKTAGSVRGGDEVYLLCDKVQKDDIEVRFYEDDENGWQAFGDFSPTDVHKQYAIVFRTPPYHKMKIERPVTVFLQLKRKRGGDVSDSKQFTYYPLVEDKEEVQRKRRKALPTFSQPFGGGSHMGGGSGGAAGGYGGAGGGGSLGFFPSSLAYSPYQSGAGPMGCYPGGGGGAQMAATVPSRDSGEEAAEPSAPSRTPQCEPQAPEMLQRAREYNARLFGLA

binding result [1]: no binding
B3: RelB (other, human, UniProt Q01201 1-579, looked up)
chain: MLRSGPASGPSVPTGRAMPSRRVARPPAAPELGALGSPDLSSLSLAVSRSTDELEIIDEYIKENGFGLDGGQPGPGEGLPRLVSRGAASLSTVTLGPVAPPATPPPWGCPLGRLVSPAPGPGPQPHLVITEQPKQRGMRFRYECEGRSAGSILGESSTEASKTLPAIELRDCGGLREVEVTACLVWKDWPHRVHPHSLVGKDCTDGICRVRLRPHVSPRHSFNNLGIQCVRKKEIEAAIERKIQLGIDPYNAGSLKNHQEVDMNVVRICFQASYRDQQGQMRRMDPVLSEPVYDKKSTNTSELRICRINKESGPCTGGEELYLLCDKVQKEDISVVFSRASWEGRADFSQADVHRQIAIVFKTPPYEDLEIVEPVTVNVFLQRLTDGVCSEPLPFTYLPRDHDSYGVDKKRKRGMPDVLGELNSSDPHGIESKRRKKKPAILDHFLPNHGSGPFLPPSALLPDPDFFSGTVSLPGLEPPGGPDLLDDGFAYDPTAPTLFTMLDLLPPAPPHASAVVCSGGAGAVVGETPGPEPLTLDSYQAPGPGDGGTASLVGSNMFPNHYREAAFGGGLLSPGPEAT
